According to US20050276832A1, “Topical compositions and uses thereof for treating aquatic animals subjected to disinfection and vaccination” (Veterquimica Ltda., priority 2004, published 2005):

System: Saprolengia sp.
Test: Antifungal bath treatment of Atlantic salmon infected by Saprolengia sp.
Assay type: in vivo
Conditions: 1 h baths on Day 1 and Day 7
Text: Five groups were formed, made up of 30 fish each of the Atlantic salmon species, 40-50 grams, showing clear signs of infection by the fungus Saprolengia sp., confirmed by laboratory tests. One of the groups was preserved as control without treatment, while the four remaining groups were subjected to experimental antifingal treatments. In this way, the groups were set up as follows: • GROUP 1: Without antifungal treatment • GROUP 2: Treated with the antifungal product bronopol, according to recommended dose of 20 ppm • GROUP 3: Treated with the Formulation A, in a dose of 28 ml/70 liters of water • GROUP 4: Treated with the Formulation B, in a dose of 28 ml/70 liters of water • GROUP 5: Treated with the Formulation C, in a dose of 28 ml/70 liters of water
The treatments consisted of the following: on Day 1, the fish were submerged for one hour in a bath with 70 liters of water to which the corresponding formulation had been added. Afterwards, they were transferred to breeding tanks that only contained water and with a standard feeding regime, all under the customary aquarium control that includes controlling the temperature (16-17 degrees C.), dissolved oxygen levels not lower than 7 ppm, and control of nitrites and ammonium. On Day 7, the fish were subjected to a second bath, similar to that of Day 1, to continue their development until 14 days of breeding had been completed, keeping a record of the fish killed due to the effect of the Saprolengia fungus. On Day 15, the fish that survived were harvested and the level of infection by Saprolengia was determined for each fish.
The infection level was classified according to the following scale: • INFECTION GRADE 0: healthy fish, without fungus on the skin • INFECTION GRADE 1: fish having only fungal spots on the skin. • INFECTION GRADE 2: fish with short fungal hypha • INFECTION GRADE 3: fish having necrosis of the tissues • INFECTION GRADE 4: fish with cottony hypha • INFECTION GRADE 5: fish dead due to fungal infection (occurring during the 14 days of breeding) Results

O=[N+]([O-])C(Br)(CO)CO [bromopol, bromo-2-nitropropane-1.3-diol]
fish with grade 5 (death) (30 fish per group, dead due to fungal infection during 14 days of breeding): 50%
fish with grade 1-2 (infection level on Day 15, grade 1 fungal spots, grade 2 short fungal hypha): 40%
fish with grade 0 (healthy) (infection level on Day 15, without fungus on the skin): 10%
